In patent US20050123514A1, “Increased transduction using ABC transporter substrates and/or inhibitors” (priority 2003, published 2005):
“And” between values parts separate entries of the source, which are not always exact repeats. Equal values may be shown once. Read-outs that look alike come from different tables or passages of the source.

Columns and labels:
[1] = test system: CD34+ cells from mobilized peripheral blood; type: cell-based, human
Description: (§1) Supernatant was collected repeatedly 24 to 72 hours after transfection, pooled, and then concentrated by ultracentrifugation at 10,000 rpm for 12 hours. Clinical grade vector was packaged similarly in 293F cells under more stringent laboratory conditions. Supernatant was harvested at 24 hours and 36 hours after transfection. The supernatant is filtered through a series of cartridge filters of decreasing pore diameter, then concentrated by ultrafiltration. Benzonase is added by diafiltration to destroy contaminating plasmid and cellular DNA. The material is applied to a Sephacryl-500 gel filtration column then filtered through a 0.22-micron filter.
Cells: Frozen CD34 positive cells (greater than 98% purity) derived from adult bone marrow, adult G-CSF mobilized peripheral blood and cord blood were purchased from AllCells (Berkeley, Calif.). Additional peripheral blood CD34 cells mobilized by cyclophosphamide and GCSF and were generous gifts from Dr. Christian Chabannon.
(§2) Research grade vector transduction with VRX430: CD34+ cells were thawed according to manufacturer's specifications, then cultured at 37° C. for 1 hour. Cells were cultured with an inhibitor at 37° C. for 0 to 90 minutes before addition of vector. MOI 25 to 50 of vector was added to plates coated with 1.5 μg/cm^2 Retronectin (Takara, Japan), then cells were added to the plate and cultured at 37° C.. Twenty-four hours after inhibitor addition, the cells were washed free of vector and drug and were resuspended in fresh medium containing MOI 25 of vector and cultured at 37° C.. CD34+ cells were cultured in IMDM (Invitrogen, Carlsbad, Calif.) supplemented with 1× BIT (Stem Cell Technologies, Vancouver BC) and 25 to 100 ng/ml of TPO, Flt-3L and SCF (R&D Systems, Minneapolis, Minn.). Cells used in in vitro assays were washed free of vector four days after the start of transduction. Cells transplanted into mice were washed free of vector two days after the start of transduction and immediately transplanted into mice.
Cell culture: Four days after transduction CD34 positive cells were washed free of vector and maintained in liquid culture in IMDM plus 1× BIT supplemented with 25 ng/mL TPO, SCF, and Flt-3L, or plated in CFU and LTC-IC assays. Five hundred to 1000 cells were plated in methylcellulose (H3231, Stem Cell Technologies, Vancouver, BC) supplemented with […] and 1 U/mL EPO. Colony growth was scored two weeks after plating and was analyzed by flow cytometry for GFP expression. One to 3×10^5 cells were overlayed upon MS-5 stromal cells for the LTC-IC assay. The cells underwent demidepopulation weekly, in which half of the medium was removed and replaced with fresh medium. The cells collected in each demidepopulation were analyzed by flow cytometry. After 5 weeks, a mix of adherent and non-adherent cells was plated into methylcellulose supplemented as above for formation of secondary CFU. Colonies were scored three weeks after plating and analyzed for GFP expression by flow cytometry.
CD34+ cells isolated from mobilized peripheral blood were cultured short and long term.

[2] = test system: human CD34 positive cells; type: cell-based; settings: for effect on transduction efficiency (in words): summary statements
[3] = test system: SCID repopulating cells (SRC); assay: Secondary transplantation of SRCs in NOD/SCID mice; type: in vivo
Description: (§3) Mice: NOD.CB17-Prkdcscid/J (formerly known as NOD/LtSz-Prkdcscid/J) mice were purchased from Jackson Laboratories (Bar Harbor, Me.) and housed in microisolatorcages at Bioqual, Inc (Rockville, Md.). All experiments were approved by the ACUC. 6 to 7 week old mice were sublethally irradiated with 350 cGy (^137Cs source), then transplanted the next day with 2×10^5 cord blood CD34+ cells. Mice sacrificed at 6 to 8 weeks were tested for EGFP expression in CD45+, CD34+, CD33+, CD19+ and CD3+ subsets from the bone marrow using PE conjugated antibodies (clones HI30, 581, WM53, HIB19, UCHT1, respectively, Pharmingen, San Diego, Calif.) by flow cytometry (FACSCaliber, Becton Dickinson, Franklin Lakes, N.J.). Mice sacrificed at 14 weeks were analyzed for EGFP expression in the CD45+, CD34+, CD33+, CD19+ and CD3+ subsets in the marrow, spleen and thymus. For secondary transplantation, half of the total marrow recovered from the primary mouse was transplanted into 350 cGy irradiated secondary recipient NOD.CB17-Prkdcscid/J mice. Mice were sacrificed after 8 weeks and analyzed for EGFP expression in the CD45+, CD33+ and CD19 subsets from the bone marrow.
NOD-SCID mice were given a primary transplantation of stem cells isolated from cord blood in the presence of antibody to the murine IL-2 receptor beta chain to inhibit natural killer cell lysis of the transplanted cells. […] Bone marrow was isolated at 14 weeks post transplantation. Total recovered cells (a mixture of human and mouse) were transplanted into naïve NOD/SCID recipient mice at 15-20×10^6 cells per mouse. During secondary transplantation, mice were not given antibody to the murine IL-2 receptor due to inhibitory cost; therefore the percentage engraftment is much lower. Mice were sacrificed at 8 weeks post transplantation, and the percentage of GFP-positive human cells was assessed by flow cytometry (Table 3).

[4] = test system: SCID repopulating cells (SRC); assay: NOD-SCID xenotransplantation of transduced cord blood CD34+ cells (SRC), primary transplant; type: in vivo, NOD-SCID mice
Description: as §3

[5] = test system: Hematopoietic stem cells (hsc); settings: research grade vector
Description: as §1
as §2, with “Cells transplanted into mice were washed free of vector two days after the start of transduction and immediately transplanted into mice.” left out
Cell culture: Four days after transduction CD34 positive cells were washed free of vector and maintained in liquid culture in IMDM plus 1× BIT supplemented with 25 ng/mL TPO, SCF, and Flt-3L, or plated in CFU and LTC-IC assays. […] Colony growth was scored two weeks after plating and was analyzed by flow cytometry for GFP expression. […] The cells collected in each demidepopulation were analyzed by flow cytometry. […] Colonies were scored three weeks after plating and analyzed for GFP expression by flow cytometry.

[6] = bone marrow, 8 weeks post secondary transplantation, individual mice, cells transduced + verapamil

Compound | CD34 GFP [1] [%] | CFU GFP [1] [%] | LTC GFP [1] [%] | Secondary CFU GFP [1] [%] | effect on transduction efficiency (in words) [1] | effect on transduction efficiency (in words) [2] | also measured
COc1ccc([C@@H]2Sc3ccccc3N(CCN(C)C)C(=O)[C@@H]2OC(C)=O)cc1 [diltiazem] | 19 | 15 | 23 | 26 | significant increase in transduction efficiency | increased transduction to levels similar to verapamil | –
CCCN(CCC)S(=O)(=O)c1ccc(C(=O)O)cc1 [probenecid] | 9 | 8 | 11 | 4 | did not increase transduction efficiency | – | increase in transduction ([2]; hematopoietic cells): less than 2 fold
COC(=O)[C@H]1[C@H]2C[C@@H]3c4[nH]c5cc(OC)ccc5c4CCN3C[C@H]2C[C@@H](OC(=O)c2cc(OC)c(OC)c(OC)c2)[C@@H]1OC [reserpine] | 3 | 5 | 5 | 3 | did not increase transduction efficiency | did not increase transduction efficiency | –
CC(C)c1nc(CN(C)C(=O)N[C@H](C(=O)N[C@@H](Cc2ccccc2)C[C@H](O)[C@H](Cc2ccccc2)NC(=O)OCc2cncs2)C(C)C)cs1 [ritonavir] | – | – | – | – | increased transduction efficiency | – | percentage of GFP-expressing cells compared with diltiazem or verapamil ([1]; mPB short and long term cultures, ritonavir 5 μM or 20 μM, FIG. 3): did not increase the percentage of GFP-expressing cells as well as diltiazem or verapamil
COc1ccc(CCN(C)CCCC(C#N)(c2ccc(OC)c(OC)c2)C(C)C)cc1OC (stereo not drawn) [verapamil] | – | – | – | 56 | – | – | CD34 copy number [1]: 3.2; percentage of GFP-positive cells versus transduced without drug ([3]; CD45, CD19 and CD33 lineages, secondary transplantation): increased percentage of GFP-positive cells; % CD45 Engraft. [3, 6]: <0.1% and 0.3%; % GFP CD19 [3, 6]: 100% and 98%; % GFP CD33 [3, 6]: 38% and 51%; % GFP CD45 [3, 6]: 59% and 97%; frequency and distribution of hematopoietic subsets ([4]; NOD-SCID mice, cells transduced in verapamil): unchanged; increase in SRC transduction over levels in the absence of verapamil ([4]; SRC recovered from the bone marrow of NOD-SCID mice): three to four-fold; GFP expression in repopulating cells ([4]; bone marrow and spleen, 14 weeks post-hsc transfer, FIG. 5): high percentage of GFP positive repopulating stem cells; GFP expression in human CD45, CD34, CD33, CD19 cells ([4]; bone marrow, 6-8 weeks post-hsc transfer, 50 and 75 μg/ml verapamil pooled, FIG. 4): significantly higher percentage of GFP expressing cells; copy numbers, increase versus no verapamil ([5]; long-term cultures): 8 fold; copy numbers, increase versus no verapamil ([5]; short-term cultures): 2 fold; percentage of transduced cells ([5]; with verapamil, both short and long term cultures): 70-80%
sodium orthovanadate | – | – | – | – | reduced efficiency of gene transfer | did not increase transduction efficiency | –
